Several values for one entry are separate records, joined by “and”; a condition that tells them apart may be missing. Equal entries are not always repeated. Where two headings read alike, the source gives them in different places.
Assays:
[1] = tested on: E. coli DH5αZ1 + pZE24-tet(X6); assay: Microbroth dilution antibiotic susceptibility test (MIC); format: cell-based; conditions: Escherichia coli
Protocol: (§1) For high expression, 1 mM IPTG fully relieves repression by LacI[44] thus only IPTG was used in whole-cell tests. Chemically-competent E. coli DH5αZ1 (Expressys) was transformed with these pZE24 constructs by heat shock. Minimum inhibitory concentrations (MICs) were measured as per Clinical and Laboratory Standards Institute (CLSI) guidelines. Substrates and inhibitors were dissolved in DMSO (20 mg/mL) then diluted to working concentrations in cation-adjusted Mueller-Hinton II broth supplemented with 50 μg/mL kanamycin (Supplementary Data 2). Antibiotic susceptibility testing panels were prepared in 96-well flat-bottom microplates (Corning) by two-fold serial dilution of the antibiotic of interest (Supplementary Data 3). […] Liquid cultures of each strain were grown to exponential phase then diluted to a standard concentration (OD600 = 0.0015, which is equivalent to double ~5 × 10^5 CFU/mL) and inoculated into each panel at a 1:1 ratio. […] Each strain-antibiotic/inhibitor combination was tested in triplicate, along with no-drug and no-cell controls. Inoculated panels were sealed with Breathe-Easy membranes (Sigma-Aldrich) and incubated at 37 °C for 20 h. MICs were scored by absorbance measurements at 600 nm (OD600) using the Synergy H1 microplate reader (Biotek Instruments, Inc).

[2] = tested on: E. coli DH5αZ1 + pZE24 (empty); assay: as above; format: cell-based; conditions: Escherichia coli, 20 h, drug alone
Protocol: as §1

[3] = tested on: E. coli DH5αZ1 + pZE24-tet(X7); assay: as above; format: cell-based; conditions: Escherichia coli, 20 h
Protocol: as §1

Tet(X6) = Tet(X6) (Proteus genomosp. 6, UniProt A0A6I7DAX3); conditions: for Sigmoidal curve fit, best-fit Kprime / Sigmoidal curve fit, best-fit Vmax / Sigmoidal curve fit, best-fit h / Sigmoidal curve fit, best-fit Khalf: allosteric sigmoidal model, Supplementary Data 1; for Sigmoidal curve fit, best-fit Khalf: [Sub] in μM; for Michaelis-menten nonlinear fit, best-fit Kcat / Michaelis-menten nonlinear fit, best-fit Vmax: supplementary source data; for Michaelis-menten nonlinear fit, best-fit Vmax: Tet(X6) 0.4 µM
Tet(X6), sequence (A0A6I7DAX3 entry or part of it): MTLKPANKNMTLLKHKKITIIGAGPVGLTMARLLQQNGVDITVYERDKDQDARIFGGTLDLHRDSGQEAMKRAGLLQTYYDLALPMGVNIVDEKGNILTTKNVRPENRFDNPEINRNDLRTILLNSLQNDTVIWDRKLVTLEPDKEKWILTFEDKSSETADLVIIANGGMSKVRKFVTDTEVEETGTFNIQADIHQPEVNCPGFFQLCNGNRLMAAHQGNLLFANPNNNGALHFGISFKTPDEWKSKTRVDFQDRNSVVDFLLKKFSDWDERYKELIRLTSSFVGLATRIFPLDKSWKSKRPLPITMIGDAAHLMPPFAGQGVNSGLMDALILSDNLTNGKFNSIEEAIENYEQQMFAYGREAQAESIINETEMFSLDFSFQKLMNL
Protocol: All experiments were prepared open to air in non-degassed buffer solutions at room temperature. […] Initial enzyme velocities were determined by linear regression using Agilent Cary WinUV Software over the linear range of the reaction (typically between 0 to 1 min), plotted against the concentration of the substrate, and fitted to the Michaelis–Menten or allosteric sigmoidal nonlinear regression equations using GraphPad Prism 6.

[4] = tested on: CN(C)[C@@H]1C(O)=C(C(N)=O)C(=O)[C@@]2(O)C(O)=C3C(=O)c4c(O)c(NC(=O)CN5CCCC5)cc(F)c4C[C@H]3C[C@@H]12; assay: purified protein, by the assay type; conditions: pH 8.5
[5] = tested on: CN(C)[C@@H]1C(O)=C(C(N)=O)C(=O)[C@@]2(O)C(O)=C3C(=O)c4c(O)cccc4[C@@](C)(O)[C@H]3C[C@@H]12; assay: purified protein, by the assay type; conditions: other: compound as substrate of Tet(X6), Michaelis-Menten fit, pH 8.5
[6] = tested on: Cc1c2c(c(O)c3c(O)cccc13)C(=O)[C@]1(O)C(=O)C(C(N)=O)=C(O)[C@@H](N(C)C)[C@@H]1C2; assay: purified protein, by the assay type; conditions: other: compound as substrate of Tet(X6), Michaelis-Menten fit, pH 8.5
[7] = tested on: CN(C)c1cc(NC(=O)CNC(C)(C)C)c(O)c2c1C[C@H]1C[C@H]3[C@H](N(C)C)C(O)=C(C(N)=O)C(=O)[C@@]3(O)C(O)=C1C2=O; assay: purified protein, by the assay type; conditions: pH 8.5
[8] = tested on: [H][C@@]12Cc3c(N(C)C)cc(CNCC(C)(C)C)c(O)c3C(=O)C1=C(O)[C@]1(O)C(=O)C(C(N)=O)=C(O)[C@@H](N(C)C)[C@]1([H])C2; assay: purified protein, by the assay type; conditions: pH 8.5
Tet(X2) = conditions: surface-localized single point mutation; cited from earlier work
[9] = [Sub] 3.8961 μM, trials 1-3, absorbance 400 nm (440 nm for aTC)
[10] = [Sub] 6.16883 μM, trials 1-3, absorbance 400 nm (440 nm for aTC)
[11] = [Sub] 8.11688 μM, trials 1-3, absorbance 400 nm (440 nm for aTC)
[12] = [Sub] 10.0649 μM, trials 1-3, absorbance 400 nm
[13] = [Sub] 29.8701 μM, trials 1-3, absorbance 400 nm (440 nm for aTC)
[14] = [Sub] 1.96581 μM, trials 1-3, absorbance 400 nm
[15] = [Sub] 3.93162 μM, trials 1-3, absorbance 400 nm
[16] = [Sub] 5.89744 μM, trials 1-3, absorbance 400 nm
[17] = [Sub] 7.86325 μM, trials 1-3, absorbance 400 nm
[18] = [Sub] 9.82906 μM, trials 1-3, absorbance 400 nm
[19] = [Sub] 20.641 μM, trials 1-3, absorbance 400 nm
[20] = [Sub] 30.4701 μM, trials 1-3, absorbance 400 nm
[21] = other: compound as substrate of Tet(X6), Michaelis-Menten fit
[22] = other: supplementary source data, [Sub] in μM

CN(C)[C@@H]1C(O)=C(C(N)=O)C(=O)[C@@]2(O)C(O)=C3C(=O)c4c(O)c(NC(=O)CN5CCCC5)cc(F)c4C[C@H]3C[C@@H]12 [ERA, eravacycline]
MIC ([1]; 20 h): 8 µg/mL
MIC [2]: 0.25 µg/mL
MIC [3]: 4 µg/mL
Slope (initial velocity of substrate degradation) (Tet(X6); [9]): 0.0062 and 0.0046 and 0.0039
Slope (initial velocity of substrate degradation) (Tet(X6); [10]): 0.0169 and 0.0106 and 0.0133
Slope (initial velocity of substrate degradation) (Tet(X6); [11]): 0.0312 and 0.0317 and 0.0293
Slope (initial velocity of substrate degradation) (Tet(X6); [12]): 0.0442 and 0.0406 and 0.047
Slope (initial velocity of substrate degradation) (Tet(X6); [Sub] 20.1299 μM, trials 1-3, absorbance 400 nm (440 nm for aTC)): 0.0511 and 0.0571 and 0.0722
Slope (initial velocity of substrate degradation) (Tet(X6); [13]): 0.0798 and 0.0764 and 0.0969
Slope (initial velocity of substrate degradation) (Tet(X6); [Sub] 64.9351 μM, trials 1-2, absorbance 400 nm): 0.1162 and 0.1096
Sigmoidal curve fit, best-fit Kprime (Tet(X6)): 84.21
Sigmoidal curve fit, best-fit Vmax (Tet(X6)): 0.1315
Sigmoidal curve fit, best-fit h (Tet(X6)): 1.474
Sigmoidal curve fit, best-fit Khalf (Tet(X6)): 20.22
Michaelis-menten nonlinear fit, best-fit Kcat (Tet(X6)): 0.5027
Michaelis-menten nonlinear fit, best-fit Vmax (Tet(X6)): 0.2011

CN(C)c1cc(NC(=O)CNC(C)(C)C)c(O)c2c1C[C@H]1C[C@H]3[C@H](N(C)C)C(O)=C(C(N)=O)C(=O)[C@@]3(O)C(O)=C1C2=O [TIG, tigecycline]
MIC ([1]; 20 h): 4 µg/mL
MIC [2]: 0.5 µg/mL
MIC [3]: 2 µg/mL
Slope (initial velocity of substrate degradation) (Tet(X6); [14]): 0.00897 and 0.01087 and 0.008562
Slope (initial velocity of substrate degradation) (Tet(X6); [15]): 0.01529 and 0.0186 and 0.0147
Slope (initial velocity of substrate degradation) (Tet(X6); [16]): 0.02792 and 0.01914 and 0.0183
Slope (initial velocity of substrate degradation) (Tet(X6); [17]): 0.03155 and 0.02526 and 0.02718
Slope (initial velocity of substrate degradation) (Tet(X6); [18]): 0.02741 and 0.02394 and 0.02598
Slope (initial velocity of substrate degradation) (Tet(X6); [19]): 0.03075 and 0.05034 and 0.0363
Slope (initial velocity of substrate degradation) (Tet(X6); [20]): 0.05374 and 0.04632 and 0.03822
Michaelis-menten nonlinear fit, best-fit Kcat (Tet(X6)): 0.1574
Michaelis-menten nonlinear fit, best-fit Vmax (Tet(X6)): 0.06296 and 0.06154

CN(C)[C@@H]1C(O)=C(C(N)=O)C(=O)[C@@]2(O)C(O)=C3C(=O)c4c(O)ccc(Cl)c4[C@@](C)(O)[C@H]3C[C@@H]12 [CTC, chlortetracycline]
MIC [1]: 128 µg/mL
MIC [2]: 2 µg/mL
MIC [3]: 32 µg/mL

Tet(X6) (Proteus columbae)
Km [4, 21]: 47 µM
kcat [4, 21]: 0.0083 ± 0.0017 s⁻¹
kcat/Km [4, 21]: 183 ± 67 M⁻¹ s⁻¹
Km [4, 22]: 46.6 µM
kcat [5]: 0.00433 ± 0.00017 s⁻¹
Km [6]: 6 µM
kcat/Km [6]: 200 ± 50 M⁻¹ s⁻¹
Km [7, 21]: 12 µM
kcat [7, 21]: 0.00267 ± 0.00033 s⁻¹
kcat/Km [7, 21]: 217 ± 67 M⁻¹ s⁻¹
Km [7, 22]: 11.8 µM and 11.1 µM
Km [8, 21]: 18 µM
kcat [8, 21]: 0.00333 ± 0.00033 s⁻¹
kcat/Km [8, 21]: 183 ± 50 M⁻¹ s⁻¹
Km [8, 22]: 18.4 µM

CN(C)[C@@H]1C(O)=C(C(N)=O)C(=O)[C@@]2(O)C(O)=C3C(=O)c4c(O)cccc4[C@@](C)(O)[C@H]3C[C@@H]12 [TET, tetracycline]
MIC [2]: 1 µg/mL
MIC [3]: 32 µg/mL
Slope (initial velocity of substrate degradation) (Tet(X6); [14]): 0.0375 and 0.04014 and 0.02364
Slope (initial velocity of substrate degradation) (Tet(X6); [15]): 0.04215 and 0.04584 and 0.0387
Slope (initial velocity of substrate degradation) (Tet(X6); [16]): 0.05933 and 0.04704 and 0.05922
Slope (initial velocity of substrate degradation) (Tet(X6); [17]): 0.06246 and 0.0528 and 0.05754
Slope (initial velocity of substrate degradation) (Tet(X6); [18]): 0.05855 and 0.06072 and 0.05694
Slope (initial velocity of substrate degradation) (Tet(X6); [19]): 0.07878 and 0.08328 and 0.07938
Slope (initial velocity of substrate degradation) (Tet(X6); [20]): 0.0879 and 0.09378 and 0.09744
Michaelis-menten nonlinear fit, best-fit Kcat (Tet(X6)): 0.2636
Michaelis-menten nonlinear fit, best-fit Vmax (Tet(X6)): 0.1054 and 0.1047

CN(C)c1cc(CNCC(C)(C)C)c(O)c2c1C[C@H]1C[C@H]3[C@H](N(C)C)C(O)=C(C(N)=O)C(=O)[C@@]3(O)C(O)=C1C2=O [OMA, omadacycline]
MIC ([1]; 20 h): 64 µg/mL
MIC [2]: 2 µg/mL
MIC [3]: 16 µg/mL
Slope (initial velocity of substrate degradation) (Tet(X6); [Sub] 1.94805 μM, trials 1-3, absorbance 400 nm (440 nm for aTC)): 0.0061 and 0.0058 and 0.0045
Slope (initial velocity of substrate degradation) (Tet(X6); [9]): 0.0076
Slope (initial velocity of substrate degradation) (Tet(X6); [10]): 0.0203 and 0.0178 and 0.0171
Slope (initial velocity of substrate degradation) (Tet(X6); [11]): 0.0286 and 0.0269 and 0.0241
Slope (initial velocity of substrate degradation) (Tet(X6); [12]): 0.0336 and 0.0293 and 0.0307
Slope (initial velocity of substrate degradation) (Tet(X6); [13]): 0.0474 and 0.044 and 0.0515
Sigmoidal curve fit, best-fit Kprime (Tet(X6)): 61.85
Sigmoidal curve fit, best-fit Vmax (Tet(X6)): 0.05144
Sigmoidal curve fit, best-fit h (Tet(X6)): 1.97
Sigmoidal curve fit, best-fit Khalf (Tet(X6)): 8.114
Michaelis-menten nonlinear fit, best-fit Kcat (Tet(X6)): 0.1969
Michaelis-menten nonlinear fit, best-fit Vmax (Tet(X6)): 0.07875

CN(C)c1ccc(O)c2c1C[C@H]1C[C@H]3[C@H](N(C)C)C(O)=C(C(N)=O)C(=O)[C@@]3(O)C(O)=C1C2=O [minocycline]
reduction of apparent Km by point mutation Thr280Ala in Tet(X2) (Tet(X2)): two-fold

C[C@H]1c2cccc(O)c2C(=O)C2=C(O)[C@]3(O)C(=O)C(C(N)=O)=C(O)[C@@H](N(C)C)[C@@H]3[C@@H](O)[C@@H]21 [DOX, doxycycline]
MIC ([1]; 20 h): 32 µg/mL
MIC [2]: 1 µg/mL
MIC [3]: 16 µg/mL
